Measurements: PubChem BioAssay AID2060494 (Molecular Pharmacology Branch, DTP, NCI, 2025)

System: 435261-313-R-J1-PDC complex spheroid viability
Test: Anticancer human tumor 435261-313-R-J1-PDC patient-derived colon adenocarcinoma cell line growth inhibition [GQUAD]
Settings: for IC50: curve of first compound; for viability, T/C: stronger effect = lower value
Summary of the method: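 Viability of tumor cells grown as complex spheroids with endothelial and stromal cells, exposed to drug combinations. Top concentration at or near clinical Cmax (else 10 microM), diluted in half-log increments.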

[1] = second compound 0.0316 µM, first compound 0.0316 µM
[2] = second compound 0.0316 µM, first compound 0.1 µM
[3] = second compound 0.0316 µM, first compound 0.316 µM
[4] = second compound 0.0316 µM, first compound 1 µM
[5] = second compound 0.0316 µM, first compound 3.16 µM
[6] = second compound 0.0316 µM, first compound 10 µM
[7] = second compound 0.1 µM, first compound 0.0316 µM
[8] = second compound 0.1 µM, first compound 0.1 µM
[9] = second compound 0.1 µM, first compound 0.316 µM
[10] = second compound 0.1 µM, first compound 1 µM
[11] = second compound 0.1 µM, first compound 3.16 µM
[12] = second compound 0.1 µM, first compound 10 µM
[13] = second compound 0.316 µM, first compound 0.0316 µM
[14] = second compound 0.316 µM, first compound 0.1 µM
[15] = second compound 0.316 µM, first compound 0.316 µM
[16] = second compound 0.316 µM, first compound 1 µM
[17] = second compound 0.316 µM, first compound 3.16 µM
[18] = second compound 0.316 µM, first compound 10 µM
[19] = second compound 1 µM, first compound 0.0316 µM
[20] = second compound 1 µM, first compound 0.1 µM
[21] = second compound 1 µM, first compound 0.316 µM
[22] = second compound 1 µM, first compound 1 µM
[23] = second compound 1 µM, first compound 3.16 µM
[24] = second compound 1 µM, first compound 10 µM
[25] = second compound 3.16 µM, first compound 0.0316 µM
[26] = second compound 3.16 µM, first compound 0.1 µM
[27] = second compound 3.16 µM, first compound 0.316 µM
[28] = second compound 3.16 µM, first compound 1 µM
[29] = second compound 3.16 µM, first compound 3.16 µM
[30] = second compound 3.16 µM, first compound 10 µM
[31] = second compound 10 µM, first compound 0.0316 µM
[32] = second compound 10 µM, first compound 0.1 µM
[33] = second compound 10 µM, first compound 0.316 µM
[34] = second compound 10 µM, first compound 1 µM
[35] = second compound 10 µM, first compound 3.16 µM
[36] = second compound 10 µM, first compound 10 µM
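Note: spheroids exposed to the agents for seven days before readout.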
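Throughout, for viability, T/C: percent of vehicle control viability with DMSO wells as 100%.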

## O=C(NO)c1cnc(N2CCN(S(=O)(=O)c3ccc4ccccc4c3)CC2)nc1 + Cc1[nH]c2ccc(F)cc2c1-c1nc2c3cccnc3c3ncccc3c2[nH]1
Second compound 0.0316 µM
  IC50: 430 nM
Second compound 0.1 µM
  IC50: 503 nM
Second compound 0.316 µM
  IC50: 600 nM
Second compound 1 µM
  IC50: 541 nM
Second compound 3.16 µM
  IC50: < 31.6 nM
Second compound 10 µM
  IC50: < 31.6 nM
[1]
  viability, T/C: 72.4%
[2]
  viability, T/C: 66.6%
[3]
  viability, T/C: 52.3%
[4]
  viability, T/C: 37.3%
[5]
  viability, T/C: 0.25%
[6]
  viability, T/C: 0.68%
[7]
  viability, T/C: 72.8%
[8]
  viability, T/C: 79.5%
[9]
  viability, T/C: 62%
[10]
  viability, T/C: 30.2%
[11]
  viability, T/C: 0.15%
[12]
  viability, T/C: 0.1%
[13]
  viability, T/C: 60.8%
[14]
  viability, T/C: 75.7%
[15]
  viability, T/C: 65.5%
[16]
  viability, T/C: 36.8%
[17]
  viability, T/C: 0.27%
[18]
  viability, T/C: 0.1%
[19]
  viability, T/C: 71%
[20]
  viability, T/C: 65.6%
[21]
  viability, T/C: 57.6%
[22]
  viability, T/C: 38.4%
[23]
  viability, T/C: 0.35%
[24]
  viability, T/C: 0.13%
[25]
  viability, T/C: 42.5%
[26]
  viability, T/C: 25.7%
[27]
  viability, T/C: 27%
[28]
  viability, T/C: 30.6%
[29]
  viability, T/C: 0.41%
[30]
  viability, T/C: 0.14%
[31]
  viability, T/C: 29.7%
[32]
  viability, T/C: 28.4%
[33]
  viability, T/C: 20.8%
[34]
  viability, T/C: 12.5%
[35]
  viability, T/C: 0.86%
[36]
  viability, T/C: 0.16%

## O=c1[nH]cc(F)c(=O)[nH]1 + Cc1[nH]c2ccc(F)cc2c1-c1nc2c3cccnc3c3ncccc3c2[nH]1
Second compound 0.0316 µM
  IC50: > 10000 nM
Second compound 0.1 µM
  IC50: > 10000 nM
Second compound 0.316 µM
  IC50: > 10000 nM
Second compound 1 µM
  IC50: 464 nM
Second compound 3.16 µM
  IC50: < 31.6 nM
Second compound 10 µM
  IC50: < 31.6 nM
[1]
  viability, T/C: 112%
[2]
  viability, T/C: 72.3%
[3]
  viability, T/C: 80.1%
[4]
  viability, T/C: 74.5%
[5]
  viability, T/C: 66.2%
[6]
  viability, T/C: 64.9%
[7]
  viability, T/C: 94.7%
[8]
  viability, T/C: 84.2%
[9]
  viability, T/C: 62%
[10]
  viability, T/C: 72.1%
[11]
  viability, T/C: 64.1%
[12]
  viability, T/C: 61.3%
[13]
  viability, T/C: 78.5%
[14]
  viability, T/C: 66.5%
[15]
  viability, T/C: 52.8%
[16]
  viability, T/C: 65.3%
[17]
  viability, T/C: 49.1%
[18]
  viability, T/C: 56%
[19]
  viability, T/C: 53.2%
[20]
  viability, T/C: 75%
[21]
  viability, T/C: 51.9%
[22]
  viability, T/C: 47.9%
[23]
  viability, T/C: 50.2%
[24]
  viability, T/C: 40.6%
[25]
  viability, T/C: 34.2%
[26]
  viability, T/C: 27.4%
[27]
  viability, T/C: 25.1%
[28]
  viability, T/C: 26.7%
[29]
  viability, T/C: 24.1%
[30]
  viability, T/C: 27.7%
[31]
  viability, T/C: 17.9%
[32]
  viability, T/C: 25.7%
[33]
  viability, T/C: 19%
[34]
  viability, T/C: 19.3%
[35]
  viability, T/C: 16.4%
[36]
  viability, T/C: 21.3%

## Cc1[nH]c2ccccc2c1CCNCc1ccc(/C=C/C(=O)NO)cc1 + CN(C)c1ccc(Nc2c3ccc(NC(=O)CCN4CCCC4)cc3nc3cc(NC(=O)CCN4CCCC4)ccc23)cc1
Second compound 0.0316 µM
  IC50: 80.3 nM
Second compound 0.1 µM
  IC50: 55.8 nM
Second compound 0.316 µM
  IC50: 74.7 nM
Second compound 1 µM
  IC50: 61.4 nM
Second compound 3.16 µM
  IC50: 25.5 nM
Second compound 10 µM
  IC50: < 0.999 nM
Second compound 0.0316 µM, first compound 0.000999 µM
  viability, T/C: 84.5%
Second compound 0.0316 µM, first compound 0.00316 µM
  viability, T/C: 86%
Second compound 0.0316 µM, first compound 0.00999 µM
  viability, T/C: 95%
[1]
  viability, T/C: 69.2%
Second compound 0.0316 µM, first compound 0.0999 µM
  viability, T/C: 45.9%
[3]
  viability, T/C: 9.48%
Second compound 0.1 µM, first compound 0.000999 µM
  viability, T/C: 134%
Second compound 0.1 µM, first compound 0.00316 µM
  viability, T/C: 96.6%
Second compound 0.1 µM, first compound 0.00999 µM
  viability, T/C: 79.4%
[7]
  viability, T/C: 59.7%
Second compound 0.1 µM, first compound 0.0999 µM
  viability, T/C: 50.8%
[9]
  viability, T/C: 11%
Second compound 0.316 µM, first compound 0.000999 µM
  viability, T/C: 104%
Second compound 0.316 µM, first compound 0.00316 µM
  viability, T/C: 99.5%
Second compound 0.316 µM, first compound 0.00999 µM
  viability, T/C: 91.4%
[13]
  viability, T/C: 69.4%
Second compound 0.316 µM, first compound 0.0999 µM
  viability, T/C: 43.8%
[15]
  viability, T/C: 9.1%
Second compound 1 µM, first compound 0.000999 µM
  viability, T/C: 76.7%
Second compound 1 µM, first compound 0.00316 µM
  viability, T/C: 74.3%
Second compound 1 µM, first compound 0.00999 µM
  viability, T/C: 58.5%
[19]
  viability, T/C: 62.1%
Second compound 1 µM, first compound 0.0999 µM
  viability, T/C: 45.5%
[21]
  viability, T/C: 10.1%
Second compound 3.16 µM, first compound 0.000999 µM
  viability, T/C: 119%
Second compound 3.16 µM, first compound 0.00316 µM
  viability, T/C: 79.2%
Second compound 3.16 µM, first compound 0.00999 µM
  viability, T/C: 62.7%
[25]
  viability, T/C: 56.2%
Second compound 3.16 µM, first compound 0.0999 µM
  viability, T/C: 28.5%
[27]
  viability, T/C: 6.97%
Second compound 10 µM, first compound 0.000999 µM
  viability, T/C: 44.3%
Second compound 10 µM, first compound 0.00316 µM
  viability, T/C: 49.4%
Second compound 10 µM, first compound 0.00999 µM
  viability, T/C: 23.3%
[31]
  viability, T/C: 18.3%
Second compound 10 µM, first compound 0.0999 µM
  viability, T/C: 22.6%
[33]
  viability, T/C: 4.75%
